# Assay results from ChEMBL document CHEMBL1131256, “Discovery of a novel series of potent and selective substrate-based inhibitors of p60c-src protein tyrosine kinase: conformational and topographical constraints in peptide design” (J Med Chem, 1998).
# Legend:
# [1] = molecular target: Tyrosine-protein kinase Lck (Homo sapiens, UniProt P06239); assay: Inhibition of p56 Lck kinase against 100 uM cdc2 substrate
# [2] = molecular target: Tyrosine-protein kinase Lyn (Homo sapiens, UniProt P07948); assay: Inhibition of Lyn kinase against 100 uM cdc2 substrate
# Tyrosine-protein kinase Lyn, sequence (P07948 whole entry): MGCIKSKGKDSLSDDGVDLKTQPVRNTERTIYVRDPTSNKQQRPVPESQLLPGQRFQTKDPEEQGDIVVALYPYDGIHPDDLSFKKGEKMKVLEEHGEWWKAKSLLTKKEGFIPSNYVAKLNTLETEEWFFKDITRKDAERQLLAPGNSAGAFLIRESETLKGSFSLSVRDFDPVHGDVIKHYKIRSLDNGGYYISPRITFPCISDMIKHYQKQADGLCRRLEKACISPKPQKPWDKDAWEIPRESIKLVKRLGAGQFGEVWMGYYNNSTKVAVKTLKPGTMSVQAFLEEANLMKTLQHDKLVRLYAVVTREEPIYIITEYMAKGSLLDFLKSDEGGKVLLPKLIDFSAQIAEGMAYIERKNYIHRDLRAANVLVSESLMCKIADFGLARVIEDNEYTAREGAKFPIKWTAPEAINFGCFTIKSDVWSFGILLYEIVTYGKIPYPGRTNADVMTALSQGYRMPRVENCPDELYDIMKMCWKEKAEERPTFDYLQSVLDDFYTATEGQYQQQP
# [3] = molecular target: Proto-oncogene tyrosine-protein kinase Src (Homo sapiens, UniProt P12931); assay: Inhibition of c-Src tyrosine kinase.
# [4] = tested on: CC[C@H](C)[C@H](NC(=O)[C@@H](N)Cc1ccc(O)cc1)C(=O)N[C@@H](Cc1ccc(O)cc1)C(=O)NCC(=O)N[C@@H](CO)C(=O)N[C@@H](Cc1ccccc1)C(=O)N[C@@H](CCCCN)C(N)=O; assay: Inhibition of c-Src tyrosine kinase against 55 uM YIYGSFK-NH2 substrate; settings: Homo sapiens
# Tyrosine-protein kinase Lck, sequence (P06239 whole entry): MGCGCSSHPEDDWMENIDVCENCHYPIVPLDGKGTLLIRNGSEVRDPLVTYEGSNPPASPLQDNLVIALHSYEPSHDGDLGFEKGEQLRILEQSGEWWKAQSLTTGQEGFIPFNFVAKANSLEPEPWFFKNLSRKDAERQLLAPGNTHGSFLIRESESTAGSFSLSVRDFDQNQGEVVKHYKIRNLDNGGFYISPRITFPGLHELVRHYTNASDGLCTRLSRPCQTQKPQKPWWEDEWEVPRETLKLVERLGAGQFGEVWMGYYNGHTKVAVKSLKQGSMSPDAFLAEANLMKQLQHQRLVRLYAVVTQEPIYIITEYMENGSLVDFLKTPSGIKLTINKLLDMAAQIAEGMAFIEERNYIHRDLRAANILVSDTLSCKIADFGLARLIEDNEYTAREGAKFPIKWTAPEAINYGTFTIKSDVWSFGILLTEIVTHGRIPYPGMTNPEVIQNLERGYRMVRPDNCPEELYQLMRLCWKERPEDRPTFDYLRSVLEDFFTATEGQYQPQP
Compound,IC50 [3],other results
CC1(C)SSC[C@@H](C(=O)N[C@@H](CCCCN)C(=O)N[C@@H](CCCN=C(N)N)C(N)=O)NC(=O)[C@H](Cc2ccccc2)NC(=O)[C@H](CO)NC(=O)CNC(=O)[C@H](Cc2cc(I)c(O)c(I)c2)NC(=O)[C@@H]1NC(=O)[C@@H](N)Cc1ccc(O)cc1,,IC50 [1]: 11 µM; IC50 [2]: > 800 µM
CC1(C)SSC[C@@H](C(=O)N[C@@H](CCCNC(=N)N)C(N)=O)NC(=O)[C@H](Cc2ccccc2)NC(=O)[C@H](CO)NC(=O)CNC(=O)[C@H](Cc2ccc3ccccc3c2)NC(=O)[C@@H]1NC(=O)[C@@H](N)Cc1ccc(O)cc1,3.3 µM,
CC1(C)SSC[C@@H](C(=O)N[C@@H](CCCNC(=N)N)C(N)=O)NC(=O)[C@H](Cc2ccccc2)NC(=O)[C@H](CO)NC(=O)CNC(=O)[C@H](Cc2ccc(O)cc2)NC(=O)[C@H]1NC(=O)[C@@H](N)Cc1ccc(O)cc1,4.5 µM,
C[C@@H](c1ccc2ccccc2c1)[C@H]1NC(=O)[C@H](NC(=O)[C@@H](N)Cc2ccc(O)cc2)C(C)(C)SSC[C@@H](C(=O)N[C@@H](CCCCN)C(=O)N[C@@H](CCCNC(=N)N)C(N)=O)NC(=O)[C@H](Cc2ccccc2)NC(=O)[C@H](CO)NC(=O)CNC1=O,,IC50 [1]: 260 µM
CC(=O)N[C@@H]1C(=O)N[C@@H](Cc2ccc(O)cc2)C(=O)NCC(=O)N[C@@H](CO)C(=O)N[C@@H](Cc2ccccc2)C(=O)N[C@H](C(=O)N[C@@H](CCCCN)C(=O)N[C@@H](CCCCN)C(N)=O)CSSC1(C)C,20 µM,
C[C@H](c1ccc2ccccc2c1)[C@H]1NC(=O)[C@H](NC(=O)[C@@H](N)Cc2ccc(O)cc2)C(C)(C)SSC[C@@H](C(=O)N[C@@H](CCCCN)C(=O)N[C@@H](CCCNC(=N)N)C(N)=O)NC(=O)[C@H](Cc2ccccc2)NC(=O)[C@H](CO)NC(=O)CNC1=O,,IC50 [1]: 470 µM
Proto-oncogene tyrosine-protein kinase Src (Homo sapiens) (from UniProt P12931),,Km [4]: 55 µM
CC1(C)SSC[C@@H](C(=O)N[C@@H](CCCCN)C(=O)N[C@@H](CCCN=C(N)N)C(N)=O)NC(=O)[C@H](Cc2ccccc2)NC(=O)[C@H](CO)NC(=O)CNC(=O)[C@H](Cc2ccc(O)cc2)NC(=O)[C@H]1N,20 µM,
CC1(C)SSC[C@@H](C(=O)N[C@@H](CCCCN)C(N)=O)NC(=O)[C@H](Cc2ccccc2)NC(=O)[C@H](CO)NC(=O)CNC(=O)[C@H](Cc2ccc(O)cc2)NC(=O)[C@H]1NC(=O)[C@@H](N)Cc1ccc(O)cc1,6.7 µM,
C[C@H]1NC(=O)[C@H](Cc2ccc(O)cc2)NC(=O)[C@@H](NC(=O)[C@@H](N)Cc2ccc(O)cc2)C(C)(C)SSC[C@@H](C(=O)N[C@@H](CCCCN)C(=O)N[C@@H](CCCCN)C(N)=O)NC(=O)[C@H](Cc2ccccc2)NC(=O)[C@H](CO)NC1=O,18 µM,
CC(C)(S)[C@H](NC(=O)[C@@H](N)Cc1ccc(O)cc1)C(=O)N[C@@H](Cc1ccc2ccccc2c1)C(=O)NCC(=O)N[C@@H](CO)C(=O)N[C@@H](Cc1ccccc1)C(=O)N[C@@H](CS)C(=O)N[C@@H](CCCCN)C(=O)N[C@@H](CCCCN)C(N)=O,2.7 µM,
CC(C)(S)[C@H](NC(=O)[C@@H](N)Cc1ccc(O)cc1)C(=O)N[C@@H](Cc1ccc(O)cc1)C(=O)NCC(=O)N[C@@H](CO)C(=O)N[C@@H](Cc1ccccc1)C(=O)N[C@@H](CS)C(=O)N[C@@H](CCCCN)C(=O)N[C@@H](CCCCN)C(N)=O,5.3 µM,
CC(=O)N[C@@H](Cc1ccc(O)cc1)C(=O)N[C@@H]1C(=O)N[C@@H](Cc2ccc(O)cc2)C(=O)NCC(=O)N[C@@H](CO)C(=O)N[C@@H](Cc2ccccc2)C(=O)N[C@H](C(=O)N[C@@H](CCCCN)C(=O)N[C@@H](CCCN=C(N)N)C(N)=O)CSSC1(C)C,6.5 µM,
C[C@@H](c1ccc2ccccc2c1)[C@@H]1NC(=O)[C@H](NC(=O)[C@@H](N)Cc2ccc(O)cc2)C(C)(C)SSC[C@@H](C(=O)N[C@@H](CCCCN)C(=O)N[C@@H](CCCNC(=N)N)C(N)=O)NC(=O)[C@H](Cc2ccccc2)NC(=O)[C@H](CO)NC(=O)CNC1=O,,IC50 [1]: 260 µM
CC[C@H](C)[C@@H]1NC(=O)[C@@H](N)CSSC[C@@H](C(=O)N[C@@H](CCCCN)C(=O)N[C@@H](CCCCN)C(=O)O)NC(=O)[C@H](Cc2ccccc2)NC(=O)[C@H](CO)NC(=O)CNC(=O)[C@H](Cc2ccc(O)cc2)NC1=O,2.7 µM,
CC[C@H](C)[C@H](NC(=O)[C@@H](N)CS)C(=O)N[C@@H](Cc1ccc(O)cc1)C(=O)NCC(=O)N[C@@H](CO)C(=O)N[C@@H](Cc1ccccc1)C(=O)N[C@@H](CS)C(=O)N[C@@H](CCCCN)C(=O)N[C@@H](CCCCN)C(N)=O,6.9 µM,
CC1(C)SSC[C@@H](C(=O)N[C@@H](CCCCN)C(=O)N[C@@H](CCCNC(=N)N)C(N)=O)NC(=O)[C@H](Cc2ccccc2)NC(=O)[C@H](CO)NC(=O)CNC(=O)[C@H](Cc2ccc(O)cc2)NC(=O)[C@H]1NC(=O)[C@@H](N)Cc1ccc(O)cc1,1.2 µM,
CC1(C)SSC[C@@H](C(=O)N[C@@H](CCCCN)C(=O)N[C@@H](CCCNC(=N)N)C(N)=O)NC(=O)[C@H](Cc2ccccc2)NC(=O)[C@H](CO)NC(=O)CNC(=O)[C@H](Cc2ccc(O)c(I)c2)NC(=O)[C@@H]1NC(=O)[C@@H](N)Cc1ccc(O)cc1,,IC50 [1]: 11 µM; IC50 [2]: > 800 µM
CC1(C)SSC[C@@H](C(=O)N[C@@H](CCCCN)C(=O)N[C@@H](CCCCN)C(N)=O)NC(=O)[C@H](Cc2ccccc2)NC(=O)[C@H](CO)NC(=O)CNC(=O)[C@H](Cc2ccc(O)cc2)NC(=O)[C@H]1N,14.4 µM,
C[C@H](c1ccc2ccccc2c1)[C@@H]1NC(=O)[C@H](NC(=O)[C@@H](N)Cc2ccc(O)cc2)C(C)(C)SSC[C@@H](C(=O)N[C@@H](CCCCN)C(=O)N[C@@H](CCCNC(=N)N)C(N)=O)NC(=O)[C@H](Cc2ccccc2)NC(=O)[C@H](CO)NC(=O)CNC1=O,,IC50 [1]: 220 µM
CC(=O)N[C@@H](Cc1ccc(O)cc1)C(=O)N[C@@H]1C(=O)N[C@@H](Cc2ccc(O)cc2)C(=O)NCC(=O)N[C@@H](CO)C(=O)N[C@@H](Cc2ccccc2)C(=O)N[C@H](C(=O)N[C@@H](CCCCN)C(=O)N[C@@H](CCCCN)C(N)=O)CSSC1(C)C,26 µM,
CC(=O)N[C@@H]1C(=O)N[C@@H](Cc2ccc(O)cc2)C(=O)NCC(=O)N[C@@H](CO)C(=O)N[C@@H](Cc2ccccc2)C(=O)N[C@H](C(=O)N[C@@H](CCCCN)C(=O)N[C@@H](CCCN=C(N)N)C(N)=O)CSSC1(C)C,11 µM,
